The record followed here is patent US20210251267A1, “LIGUSTROSIDIC ACID AND DERIVATIVES THEREOF FOR SWEETNESS ENHANCEMENT” (International Flavors & Fragrances Inc., priority 2018, published 2021).

What all share (set-up): species or system human
Test [1] is described as follows: Enhancement of Luo Han Guo sweetness (flavor profile). The settings on record: Luo Han Guo solution (120 ppm), all levels tested. From the text:
(§1) The term “sweetness” or “sweetness intensity” is understood to mean the relative strength of sweet sensation as observed or experienced by an individual, e.g., a human, or a degree or amount of sweetness detected by a taster, for example on the scale from 0 (none) to 8 (very strong) used in sensory evaluations according to the procedure described in American Society for Testing Materials, Special Technical Publication-434: “Manual on Sensory Testing Methods,” ASTM International, West Conshohocken, Pa. (1996).
A Luo Han Guo (Biovittoria Ltd., New Zealand) solution was prepared in water (120 ppm). Ligustrosidic acid and 2′-hydroxy ligustrosidic acid solutions were prepared as above (EXAMPLE II). The flavor profile of the Luo Han Guo solution with added ligustrosidic acid and 2′-hydroxy ligustrosidic acid is reported in the following:
(§2) Solutions of sucrose (4%) and Luo Han Guo (120 ppm) were prepared as above (EXAMPLE II and III). In addition, solutions of fructose (3.4%), Reb A (GLG Life Tech Corporation, Canada) (90 ppm) and GSG (Glucosyl Steviol Glucosides, GLG Life Tech Corporation, Canada) (200 ppm) were also prepared in water.
The Luo Han Guo solution (120 ppm) with the addition of various amount of Carica papaya leave extract was evaluated.

Test [2] is described as follows: Enhancement of sucrose sweetness (flavor profile of sucrose solution with added substance). As to conditions: sucrose solution (4%), all levels tested.
Excerpt: as §1
(§3) A sucrose solution (4%) was prepared in water. Each of ligustrosidic acid and 2′-hydroxy ligustrosidic acid solutions of different concentrations was prepared in ethanol solution in water (50%). Ligustrosidic acid and 2′-hydroxy ligustrosidic acid were evaluated at 1 and 200 ppm, respectively.
The flavor profile of the sucrose solution with added ligustrosidic acid and 2′-hydroxy ligustrosidic acid is reported in the following:
as §2
The sucrose solution (4%) with the addition of various amount of Carica papaya leave extract was evaluated.

A short description of test [3]: Taste and smell of the compounds alone. On the procedure: as §3

For the molecule `COC(=O)C1=COC(OC2OC(CO)C(O)C(O)C2O)C(=CC(=O)O)C1CC(=O)OCCc1ccc(O)cc1` (stereo in doubt) [Ligustrosidic Acid, [3-(carboxymethylene)-2-(β-D-glucopyranosyloxy)-3,4-dihydro-5-(methoxycarbonyl)]-2H-pyran-4-acetic acid-α-[2-(4-hydroxyphenyl)ethyl]ester], the “Overall effect on Luo Han Guo sweetness (summary in words)” value was “particularly strong effect” in test [1] (listed as Ligustrosidic acid); “enhanced overall sweetness, body and mouthfeel” in test [1] (listed as ligustrosidic acid). Moreover, the “Overall effect on sucrose sweetness (summary in words)” value was “particularly strong effect” in test [2] (listed as Ligustrosidic acid); “enhanced overall sweetness, body and mouthfeel” in test [2] (listed as ligustrosidic acid). Further, the “Taste and smell of the compound alone” value in test [3] (evaluated at 1 ppm) was “devoid of taste and smell”.
`COC(=O)C1=COC(OC2OC(CO)C(O)C(O)C2O)/C(=C\C(=O)O)C1CC(=O)OCCc1ccc(O)c(O)c1` (centres unmarked) [2′-Hydroxy Ligustrosidic Acid, 2′-hydroxy ligustrosidic acid]: the “Overall effect on Luo Han Guo sweetness (summary in words)” value in test [1] is recorded as “strong effect in sweetness enhancement”. Besides, in test [2], the “Overall effect on sucrose sweetness (summary in words)” value is recorded as “strong effect in sweetness enhancement”. Further, the “Taste and smell of the compound alone” value in test [3] (evaluated at 200 ppm) is “devoid of taste and smell”.
